Measured values taken from patent publication US20170190671A1, “BIS(ARYL)CATECHOL DERIVATIVES AS HERBICIDES” (E I DU PONT DE NEMOURS AND COMPANY, priority 2014, published 2017).

Assays:
Test in all cases: Test C preemergence
Assay type in all cases: in vivo
[1] = tested on: ragweed (common ragweed, Ambrosia elatior); details: Ambrosia artemisiifolia, pre-emergence, 336 h, scale 0 to 100, read-out: Plant response rating, Ragweed
Method in brief: (§1)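 Greenhouse test; preemergence to seeds in loam/sand soil, or postemergence spray to 2-18 cm, 1- to 4-leaf plants in peat/vermiculite medium; compound in non-phytotoxic solvent plus surfactant. Visual rating vs controls at 13-15 d, 0 = no effect, 100 = complete control.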

[2] = tested on: morningglory (Ipomoea coccinea); details: Ipomoea, pre-emergence, 336 h, scale 0 to 100, read-out: Plant response rating, Morningglory
Method in brief: as §1

[3] = tested on: blackgrass (Alopecurus myosuroides); details: Alopecurus myosuroides, pre-emergence, 336 h, scale 0 to 100, read-out: Plant response rating, Blackgrass
Method in brief: as §1

[4] = tested on: johnsongrass (Sorghum halepense); details: Sorghum halepense, pre-emergence, 336 h, scale 0 to 100, read-out: Plant response rating, Johnsongrass
Method in brief: as §1

[5] = tested on: pigweed (Amaranthus retroflexus); details: Amaranthus retroflexus, pre-emergence, 336 h, scale 0 to 100, read-out: Plant response rating, Pigweed
Method in brief: as §1

[6] = tested on: Italian ryegrass (Lolium multiflorum); details: Lolium multiflorum, pre-emergence, 336 h, scale 0 to 100, read-out: Plant response rating, Ryegrass, Italian
Method in brief: as §1

[7] = tested on: galium (catchweed bedstraw, Galium aparine); details: Galium, pre-emergence, 336 h, scale 0 to 100, read-out: Plant response rating, Galium
Method in brief: as §1

[8] = tested on: lambsquarters (Chenopodium album); details: Chenopodium album, pre-emergence, 336 h, scale 0 to 100, read-out: Plant response rating, Lambsquarters
Method in brief: as §1

soybean (Glycine max) = details: Glycine max, pre-emergence, scale 0 to 100, read-out: Plant response rating, Soybean
Method in brief: as §1

[9] = tested on: barnyardgrass (Echinochloa crus-galli); details: Echinochloa crus-galli, pre-emergence, read-out: Plant response rating, Barnyardgrass
Method in brief: as §1

[10] = tested on: yellow nutsedge (Cyperus esculentus); details: Cyperus, pre-emergence, 336 h, scale 0 to 100, read-out: Plant response rating, Nutsedge, Yellow
Method in brief: as §1

corn (Zea mays) = details: Zea mays, pre-emergence, 336 h, scale 0 to 100
Method in brief: as §1

[11] = tested on: waterhemp (common waterhemp, Amaranthus rudis); details: Amaranthus tuberculatus, pre-emergence, scale 0 to 100, read-out: Plant response rating, Waterhemp
Method in brief: as §1

[12] = tested on: velvetleaf (Abutilon theophrasti); details: Abutilon theophrasti, pre-emergence, scale 0 to 100, read-out: Plant response rating, Velvetleaf
Method in brief: as §1

`N#Cc1cccc(Oc2ncc(Cl)cn2)c1Oc1ncc(Br)cn1` [Compound 4, 2-[(5-bromo-2-pyrimidinyl)oxy]-3-[(5-chloro-2-pyrimidinyl)oxy]benzonitrile] was tested, and the pest or weed control at 31 g/ha ([1]; 31 g ai/ha, preemergence) was 10%, the pest or weed control at 62 g/ha ([1]; 62 g ai/ha, preemergence) was 5% and the pest or weed control at 125 g/ha ([1]; 125 g ai/ha, preemergence) was 70%. It also gave a pest or weed control at 16 g/ha ([1]; Preemergence, 16 g ai/ha) of 0%, a pest or weed control at 31 g/ha ([2]; 31 g ai/ha, preemergence) of 35% and a pest or weed control at 62 g/ha ([2]; 62 g ai/ha, preemergence) of 55%. It also gave a pest or weed control at 125 g/ha ([2]; 125 g ai/ha, preemergence) of 98%, a pest or weed control at 16 g/ha ([2]; Preemergence, 16 g ai/ha) of 5% and a pest or weed control at 31 g/ha ([3]; 31 g ai/ha, preemergence) of 30%. It also gave a pest or weed control at 62 g/ha ([3]; 62 g ai/ha, preemergence) of 95%, a pest or weed control at 125 g/ha ([3]; 125 g ai/ha, preemergence) of 95% and a pest or weed control at 16 g/ha ([3]; Preemergence, 16 g ai/ha) of 0%. It also gave a pest or weed control at 31 g/ha ([4]; 31 g ai/ha, preemergence) of 15%, a pest or weed control at 62 g/ha ([4]; 62 g ai/ha, preemergence) of 80% and a pest or weed control at 125 g/ha ([4]; 125 g ai/ha, preemergence) of 98%. It also gave a pest or weed control at 16 g/ha ([4]; Preemergence, 16 g ai/ha) of 0%, a pest or weed control at 31 g/ha ([5]; 31 g ai/ha, preemergence) of 100% and a pest or weed control at 62 g/ha ([5]; 62 g ai/ha, preemergence) of 70%. It also gave a pest or weed control at 125 g/ha ([5]; 125 g ai/ha, preemergence) of 100%, a pest or weed control at 16 g/ha ([5]; Preemergence, 16 g ai/ha) of 5% and a pest or weed control at 31 g/ha ([6]; 31 g ai/ha, preemergence) of 5%. It also gave a pest or weed control at 62 g/ha ([6]; 62 g ai/ha, preemergence) of 45%, a pest or weed control at 125 g/ha ([6]; 125 g ai/ha, preemergence) of 70% and a pest or weed control at 16 g/ha ([6]; Preemergence, 16 g ai/ha) of 0%. For the same compound, the pest or weed control at 31 g/ha ([7]; 31 g ai/ha, preemergence) was 30%, the pest or weed control at 62 g/ha ([7]; 62 g ai/ha, preemergence) was 30% and the pest or weed control at 125 g/ha ([7]; 125 g ai/ha, preemergence) was 100%. The pest or weed control at 16 g/ha ([7]; Preemergence, 16 g ai/ha) was 5%, the pest or weed control at 31 g/ha ([8]; 31 g ai/ha, preemergence) was 95% and the pest or weed control at 62 g/ha ([8]; 62 g ai/ha, preemergence) was 85%. The pest or weed control at 125 g/ha ([8]; 125 g ai/ha, preemergence) was 100%, the pest or weed control at 16 g/ha ([8]; Preemergence, 16 g ai/ha) was 75% and the plant injury at 31 g/ha (soybean (Glycine max); 31 g ai/ha, preemergence) was 30%. The plant injury at 62 g/ha (soybean (Glycine max); 62 g ai/ha, preemergence) was 50%, the plant injury at 125 g/ha (soybean (Glycine max); 125 g ai/ha, preemergence) was 95% and the plant injury at 16 g/ha (soybean (Glycine max); Preemergence, 16 g ai/ha) was 5%. The pest or weed control at 31 g/ha ([9]; 31 g ai/ha, preemergence, scale 0 to 100) was 60%, the pest or weed control at 62 g/ha ([9]; 62 g ai/ha, preemergence, scale 0 to 100) was 85% and the pest or weed control at 125 g/ha ([9]; 125 g ai/ha, preemergence, scale 0 to 100) was 100%. For the same compound, the pest or weed control at 16 g/ha ([9]; Preemergence, 16 g ai/ha, scale 0 to 100 (0 no effect, 100 complete control)) was 20%, the pest or weed control at 31 g/ha ([10]; 31 g ai/ha, preemergence) was 0% and the pest or weed control at 62 g/ha ([10]; 62 g ai/ha, preemergence) was 30%. It also gave a pest or weed control at 125 g/ha ([10]; 125 g ai/ha, preemergence) of 55%, a pest or weed control at 16 g/ha ([10]; Preemergence, 16 g ai/ha) of 0% and a Corn plant response rating (crop injury, 0 = no effect, 100 = complete kill) at 31 g/ha (corn (Zea mays); 31 g ai/ha, preemergence) of 5%. It also gave a Corn plant response rating (crop injury, 0 = no effect, 100 = complete kill) at 62 g/ha (corn (Zea mays); 62 g ai/ha, preemergence) of 10%, a Corn plant response rating (crop injury, 0 = no effect, 100 = complete kill) at 125 g/ha (corn (Zea mays); 125 g ai/ha, preemergence) of 35% and a Corn plant response rating (crop injury, 0 = no effect, 100 = complete kill) at 16 g/ha (corn (Zea mays); Preemergence, 16 g ai/ha) of 0%. The pest or weed control at 31 g/ha ([11]; 31 g ai/ha, preemergence) was 100%, the pest or weed control at 62 g/ha ([11]; 62 g ai/ha, preemergence) was 100% and the pest or weed control at 125 g/ha ([11]; 125 g ai/ha, preemergence) was 100%. The pest or weed control at 16 g/ha ([11]; Preemergence, 16 g ai/ha) was 45%, the pest or weed control at 31 g/ha ([12]; 31 g ai/ha, preemergence) was 45% and the pest or weed control at 62 g/ha ([12]; 62 g ai/ha, preemergence) was 55%. The pest or weed control at 125 g/ha ([12]; 125 g ai/ha, preemergence) was 100% and the pest or weed control at 16 g/ha ([12]; Preemergence, 16 g ai/ha) was 5%.
